Source: PMC12775434, “Ultra-large virtual screening unveils potent agonists of the neuromodulatory orphan receptor GPR139” (Nature Communications, 2025)

How the values were obtained:
GPR139 = target: T1, GPR139 (Homo sapiens, UniProt Q6DWJ6); experiment: Signaling pathway panel at GPR139 (Gi2, Gi3, GoA, Gq, G12, Ca2+, arrestin-3), HEK293A; type: cell-based; design: expressed in transfected cells; host or cells: HEK293A (transient, Lipofectamine 2000); conditions: for fold more potent than the R-enantiomer: across individual signaling pathways
T1 sequence (Q6DWJ6 1-353): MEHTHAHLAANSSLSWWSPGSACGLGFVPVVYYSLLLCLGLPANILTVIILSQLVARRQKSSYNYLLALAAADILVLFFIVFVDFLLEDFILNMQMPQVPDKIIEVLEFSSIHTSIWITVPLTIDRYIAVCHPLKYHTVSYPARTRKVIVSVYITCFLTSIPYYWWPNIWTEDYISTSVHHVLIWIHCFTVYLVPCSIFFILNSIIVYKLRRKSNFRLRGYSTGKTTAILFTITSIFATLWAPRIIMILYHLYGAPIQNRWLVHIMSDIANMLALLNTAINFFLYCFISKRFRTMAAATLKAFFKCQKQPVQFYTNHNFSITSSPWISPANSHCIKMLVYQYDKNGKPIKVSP
Protocol: We evaluated the signaling pathways activated by the potent agonist 1.1 and JNJ-63533054 compounds through GPR139. […] As all our screens of analogs were performed with racemic mixtures, we synthesized compound 1.1 as pure S- and R-enantiomer (1.1(S) and 1.1(R), respectively) along with JNJ-63533054 (JNJ(S)) and its R-enantiomer (JNJ(R)). Detailed synthetic procedures are described in the Supplementary Methods. We then characterized these four compounds in assays measuring the activation of Gi2, Gi3, GoA, Gq, and G12 proteins, intracellular calcium mobilization, and arrestin-3 recruitment. G protein activation was measured using a BRET-based Gα-specific G protein dissociation assay[57] and arrestin-3 recruitment was measured with an enhanced bystander BRET assay[58] (Fig. 5a).
HEK293A cells were reverse-transfected with human GPR139 for Ca^2+ mobilization experiments with transiently expressed GPR139. The construct has been generated and described previously by Nøhr et al.. DNA and Lipofectamine 2000 Transfection Reagent (ThermoFisher #11668019) were separately diluted in Opti-MEM I Reduced Serum Medium (ThermoFisher #31985070). 10 ng GPR139 DNA and 250 nL Lipofectamine were used for each well. The dilutions were incubated at room temperature for 5 min. Then, DNA and Lipofectamine dilutions were combined in 1:1 volumetric ratio and incubated at room temperature for 20 min to obtain the transfection solutions. 10 µL transfection solution and 20,000 cells in 100 µL growth medium were distributed in each well of black clear bottom tissue culture treated 96-well plates that were previously coated with poly-D-lysine (Sigma-Aldrich #P0899). Cells were grown for approximately 48 h. A calcium mobilization assay was performed as described.
The G protein dissociation assay developed by the lab of Kirill A. Martemyanov was used to measure the coupling of multiple G proteins by GPR139[57]. The assay was performed as described previously with minor modifications. […] Simultaneous dual emission was measured at 535 nm and 475 nm on LUMIstar Omega Microplate Reader (BMG Labtech) at room temperature. […]

[1] = Metabolic stability in the presence of mouse liver microsomes; type: in vitro ADME; conditions: pH 7.4, read-out: intrinsic clearance, CLint
Protocol: Metabolic stability was determined in 0.5 mg/ml mouse liver microsomes at a compound concentration of 1 μM in 100 mM KPO4 buffer, pH 7.4, in a total incubation volume of 500 μl. The reaction was initiated by addition of 1 mM NADPH. At various incubation times, i.e., at 0, 5, 10, 20, 40, and 60 min, a sample was withdrawn from the incubation, and the reaction was terminated by addition of cold acetonitrile with warfarin as an internal standard. The amount of parent compound remaining was analyzed by LC-MS/MS[70].

fold more potent than the R-enantiomer (GPR139)	EC50 (GPR139; range over pathways, read-out: EC50 for stimulating the individual signaling pathways at GPR139)	microsomal CLint at 1 μM [1]	Structure (SMILES)
13- to 63 fold	13 to 200 nM	1370 µL/min/mg	Cc1cscc1-c1nc(CC(=O)N[C@@H](C)c2ccccc2)no1 [1.1(S)]
–	–	46 µL/min/mg	Cc1nocc1-c1nc(CC(=O)NC(C)c2ccccc2)no1 (centres unmarked) [Compound 1.5, CC(C1=CC=CC=C1)NC(CC2=NOC(C3=CON=C3C)=N2)=O]
40- to 158 fold	–	–	CC(NC(=O)CNC(=O)c1cccc(Cl)c1)c1ccccc1 (centres unmarked) [JNJ-63533054, reference compound]
